Patent publication US4783402A, “Production of primary or secondary alcohol derivatives of phospholipids by the enzymatic technique” (Meito Sangyo Kabushiki Kaisha, priority 1983, dated 1988)

Experiments:
[1] = system: phospholipase DM derived from the Actinomadura strain (Actinomadura sp. No. 362, FERM-P No. 6132; BP 511); test: Influences of various substances on enzyme activity (choline oxidase method, egg-yolk lecithin substrate); assay type: biochemical; details: substance at 1 mM in the enzyme reaction system, added instead of the aqueous calcium chloride solution; lecithin emulsion, Tris-HCl pH 7.2, 37° C., 20 minutes
Method: (§1) The enzyme activity of the phospholipase DM utilized in the process of this invention is determined by measuring the amount of a base which is formed when the phospholipase DM acts on the substrate glycerophospholipid to decompose the ester linkage between phosphoric acid and the nitrogen-containing base. Unless otherwise indicated, the activity of phospholipase DM is measured by the choline oxidase method to be described hereinafter.
(§2) Distilled water (0.15 ml), 0.1 ml of 0.2M Tris-HCl buffer (pH 7.2) and 0.05 ml of 0.1M aqueous calcium chloride solution are mixed with 0.1 ml of 1% emulsion of purified lecithin from egg yolk (an emulsion of 0.1 g of lecithin, 1 ml of ethyl ether and 10 ml of distilled water obtained by ultrasonication). To the mixture is added 0.1 ml of an enzyme solution and reacted at 37° C. for 20 minutes. Then, 0.2 ml of 1M Tris-HCl buffer (pH 8.0) containing 50 mM disodium ethylenediamine tetraacetate, and immediately then, the mixture is boiled for 5 minutes, followed by completely stopping the reaction. Then, 4 ml of a solution obtained by dissolving a choline color-forming agent contained in a kit of a reagent for choline esterase measurement (produced by Nippon Shoji Co., Ltd.) in a color dissolving liquid is added, and reacted at 37° C. for 20 minutes. Then, the absorbance of the reaction solution at 500 nm is measured.
(§3) As a control, the absorbance of the product obtained by the same procedure as above except that an enzyme solution previously deactivated by heat is used.
(§4) The activity of the enzyme to liberate 1 micromole of choline per minute is defined as one unit.
(§5) In the method of measuring the activity of the enzyme described hereinabove, 0.05 ml of an aqueous solution of each of various substances is added instead of the aqueous calcium chloride solution so that its concentration in the enzyme reaction system becomes 1 mM. The activity of the enzyme is then measured. The activity of the enzyme at the time of adding water is taken as 100, and the relative activity of the enzyme is determined.

[2] = system: phospholipase DM derived from the Nocardiopsis strain (Nocardiopsis sp. No. 779, FERM-P No. 6133; BP 512); test: as above; assay type: biochemical; details: substance at 1 mM in the enzyme reaction system, added instead of the aqueous calcium chloride solution; lecithin emulsion, Tris-HCl pH 7.2, 37° C., 20 minutes
Method: as §1, §2, §3, §4, §5

Structure (SMILES): CC(C)(C)O [t-butanol]
- influence on the activity of the enzyme (relative activity, activity at the time of adding water taken as 100) [1]: activating action
- influence on the activity of the enzyme (relative activity, activity at the time of adding water taken as 100) [2]: activating action

Structure (SMILES): CCO [ethanol]
- influence on the activity of the enzyme (relative activity, activity at the time of adding water taken as 100) [1]: activating action
- influence on the activity of the enzyme (relative activity, activity at the time of adding water taken as 100) [2]: activating action

Structure (SMILES): CC(C)O [isopropanol]
- influence on the activity of the enzyme (relative activity, activity at the time of adding water taken as 100) [1]: activating action
- influence on the activity of the enzyme (relative activity, activity at the time of adding water taken as 100) [2]: activating action
